Laboratory results from patent US20050107475A1, “Methods of using farnesoid x receptor (frx) agonists” (priority 2002, published 2005).

Experiments:
[1] = test system: human Fibroblast Growth Factor 19 (hFGF19); test: Differential expression of FGF19 in human hepatocytes treated with FXR agonists (transcript profiling); assay type: cell-based; settings: vs DMSO control
Description: The present study utilized differential gene expression analysis as performed by CuraGen Corporation (New Haven, Conn.) using transcript profiling technology. […] In brief, RNA is extracted from samples and cDNA synthesis is carried out. The cDNAs are then digested with multiple pairs of different restriction enzymes (standard set of 96 different pairs of restriction enzymes with 6 base-pair recognition sites (subsequence pairs)), and the digested products are ligated to complementary adapters containing standardized PCR priming sequences. Multiple PCR cycles are carried out using one biotinylated adapter-specific primer and one fluorescently labeled adapter-specific primer. Following PCR amplification, the biotin-labeled DNA is purified on immobilized streptavidin. Denatured single stranded cDNA fragments are then sized using capillary electrophoresis, and the fluorescently labeled fragments are detected by laser excitation. Since the biotin label is needed for purification and the fluorescent label is needed for detection, all analyzed fragments result from restriction digestion with both enzymes.
Differentially expressed peaks are identified by comparing the composite traces of the experimental samples vs. the control samples using bioinformatics algorithms. […]

primary rat adipocytes [2] = settings: added to cultures of primary rat adipocytes; cited from earlier work
FvB mice = settings: 1 mg/kg/day, intravenously by osmotically driven implanted pump, vs carrier alone; cited from earlier work
primary rat adipocytes [3] = settings: added to cultures of primary rat adipocytes; cited from earlier work; remark: listed apart in the source

Compound	Increase in expression of hFGF19 compared to control cells [1] [fold]	release of leptin from the cells (primary rat adipocytes [2])	food intake (FvB mice)	oxygen consumption (FvB mice)	uptake of glucose (primary rat adipocytes [3])
CC(C)c1onc(-c2c(Cl)cccc2Cl)c1COc1ccc(/C=C/c2cccc(C(=O)O)c2)c(Cl)c1 [GW4064X]	36.4	–	–	–	–
recombinant human FGF-19: recombinant human fibroblast growth factor 19 protein	–	increase the release of leptin	increased food intake	increased oxygen consumption	decrease the uptake of glucose
